# Assays:
# Test in all cases: relative viability (nuclei count vs DMSO), 5 days (fraction); higher = more cells survive
# NCI-H1355 = test system: NCI-H1355
# Summary of the method: (§1)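 Relative viability equals treated-well nuclei counts divided by vehicle-well nuclei counts. Counts came from 4× images of lung cancer cell lines grown in 1536-well plates for 5 days after pin-tool dosing on the day after seeding. Dosing used one drug alone or a fixed anchor-drug dose plus five library-drug doses (not always all listed) in √10 steps, and values are medians of duplicate plates.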
# LCLC-103H = test system: LCLC-103H
# Summary of the method: as §1
# HCC-827 = test system: HCC-827
# Summary of the method: as §1
# LCLC-97TM1 = test system: LCLC-97TM1
# Summary of the method: as §1
# NCI-H2405 = test system: NCI-H2405
# Summary of the method: as §1
# SK-LU-1 = test system: SK-LU-1
# Summary of the method: as §1
# NCI-H1395 = test system: NCI-H1395
# Summary of the method: as §1
# NCI-H2087 = test system: NCI-H2087
# Summary of the method: as §1
# NCI-H3122 = test system: NCI-H3122
# Summary of the method: as §1
# CAL-12T = test system: CAL-12T
# Summary of the method: as §1
# NCI-H322M = test system: NCI-H322M
# Summary of the method: as §1
# NCI-H1437 = test system: NCI-H1437
# Summary of the method: as §1
# 201T = test system: 201T
# Summary of the method: as §1
# BEN = test system: BEN
# Summary of the method: as §1
# NCI-H2023 = test system: NCI-H2023
# Summary of the method: as §1
# NCI-H1793 = test system: NCI-H1793
# Summary of the method: as §1
# NCI-H647 = test system: NCI-H647
# Summary of the method: as §1
# NCI-H2228 = test system: NCI-H2228
# Summary of the method: as §1
# NCI-H727 = test system: NCI-H727
# Summary of the method: as §1
# HOP-62 = test system: HOP-62
# Summary of the method: as §1
# NCI-H1650 = test system: NCI-H1650
# Summary of the method: as §1
# LXF-289 = test system: LXF-289
# Summary of the method: as §1
# RERF-LC-KJ = test system: RERF-LC-KJ
# Summary of the method: as §1
# HCC-44 = test system: HCC-44
# Summary of the method: as §1
compound,measurement,setting,value
COc1cc(N2CCC(C(N)=O)CC2)ccc1Nc1nc(N)c(Cl)c(Nc2ccccc2S(=O)(=O)C(C)C)n1 [HG-5-88-01] + O=C(CCCCCCC(=O)Nc1ccccc1)NO [Vorinostat] (partner 1 µM),relative viability,NCI-H1355; first compound 0.04 µM,0.59
same,relative viability,NCI-H1355; first compound 0.1265 µM,0.62
same,relative viability,NCI-H1355; first compound 0.4 µM,0.626
same,relative viability,NCI-H1355; first compound 1.265 µM,0.587
same,relative viability,NCI-H1355; first compound 4 µM,0.399
same,relative viability,LCLC-103H; first compound 0.04 µM,0.826
same,relative viability,LCLC-103H; first compound 0.1265 µM,0.767
same,relative viability,LCLC-103H; first compound 0.4 µM,0.65
same,relative viability,LCLC-103H; first compound 1.265 µM,0.757
same,relative viability,LCLC-103H; first compound 4 µM,0.605
same,relative viability,HCC-827; first compound 0.04 µM,0.829
same,relative viability,HCC-827; first compound 0.1265 µM,0.807
same,relative viability,HCC-827; first compound 0.4 µM,0.87
same,relative viability,HCC-827; first compound 1.265 µM,0.335
same,relative viability,HCC-827; first compound 4 µM,0.235
same,relative viability,LCLC-97TM1; first compound 0.04 µM,0.75
same,relative viability,LCLC-97TM1; first compound 0.1265 µM,0.757
same,relative viability,LCLC-97TM1; first compound 0.4 µM,0.62
same,relative viability,LCLC-97TM1; first compound 1.265 µM,0.645
same,relative viability,LCLC-97TM1; first compound 4 µM,0.126
same,relative viability,NCI-H2405; first compound 0.04 µM,1.07
same,relative viability,NCI-H2405; first compound 0.1265 µM,1.06
same,relative viability,NCI-H2405; first compound 0.4 µM,0.895
same,relative viability,NCI-H2405; first compound 1.265 µM,1.03
same,relative viability,NCI-H2405; first compound 4 µM,1.02
same,relative viability,SK-LU-1; first compound 0.04 µM,0.783
same,relative viability,SK-LU-1; first compound 0.1265 µM,0.82
same,relative viability,SK-LU-1; first compound 0.4 µM,0.789
same,relative viability,SK-LU-1; first compound 1.265 µM,0.773
same,relative viability,SK-LU-1; first compound 4 µM,0.547
same,relative viability,NCI-H1395; first compound 0.04 µM,0.69
same,relative viability,NCI-H1395; first compound 0.1265 µM,0.681
same,relative viability,NCI-H1395; first compound 0.4 µM,0.733
same,relative viability,NCI-H1395; first compound 1.265 µM,0.832
same,relative viability,NCI-H1395; first compound 4 µM,0.597
same,relative viability,NCI-H2087; first compound 0.04 µM,0.74
same,relative viability,NCI-H2087; first compound 0.1265 µM,0.692
same,relative viability,NCI-H2087; first compound 0.4 µM,0.592
same,relative viability,NCI-H2087; first compound 1.265 µM,0.928
same,relative viability,NCI-H2087; first compound 4 µM,0.76
same,relative viability,NCI-H3122; first compound 0.04 µM,0.731
same,relative viability,NCI-H3122; first compound 0.1265 µM,0.438
same,relative viability,NCI-H3122; first compound 0.4 µM,0.195
same,relative viability,NCI-H3122; first compound 1.265 µM,0.218
same,relative viability,NCI-H3122; first compound 4 µM,0.158
same,relative viability,CAL-12T; first compound 0.04 µM,0.747
same,relative viability,CAL-12T; first compound 0.1265 µM,0.89
same,relative viability,CAL-12T; first compound 0.4 µM,0.623
same,relative viability,CAL-12T; first compound 1.265 µM,0.811
same,relative viability,CAL-12T; first compound 4 µM,0.49
same,relative viability,NCI-H322M; first compound 0.04 µM,0.864
same,relative viability,NCI-H322M; first compound 0.1265 µM,0.809
same,relative viability,NCI-H322M; first compound 0.4 µM,0.782
same,relative viability,NCI-H322M; first compound 1.265 µM,0.668
same,relative viability,NCI-H322M; first compound 4 µM,0.706
same,relative viability,NCI-H1437; first compound 0.04 µM,0.899
same,relative viability,NCI-H1437; first compound 0.1265 µM,0.897
same,relative viability,NCI-H1437; first compound 0.4 µM,0.645
same,relative viability,NCI-H1437; first compound 1.265 µM,0.78
same,relative viability,NCI-H1437; first compound 4 µM,0.613
same,relative viability,201T; first compound 0.04 µM,0.984
same,relative viability,201T; first compound 0.1265 µM,0.94
same,relative viability,201T; first compound 1.265 µM,0.883
same,relative viability,201T; first compound 4 µM,1.11
same,relative viability,BEN; first compound 0.04 µM,0.555
same,relative viability,BEN; first compound 0.1265 µM,0.624
same,relative viability,BEN; first compound 0.4 µM,0.591
same,relative viability,BEN; first compound 1.265 µM,0.552
same,relative viability,BEN; first compound 4 µM,0.532
same,relative viability,NCI-H2023; first compound 0.04 µM,0.764
same,relative viability,NCI-H2023; first compound 0.1265 µM,0.777
same,relative viability,NCI-H2023; first compound 0.4 µM,0.361
same,relative viability,NCI-H2023; first compound 1.265 µM,0.425
same,relative viability,NCI-H2023; first compound 4 µM,0.436
same,relative viability,NCI-H1793; first compound 0.04 µM,0.648
same,relative viability,NCI-H1793; first compound 0.1265 µM,0.95
same,relative viability,NCI-H1793; first compound 0.4 µM,0.725
same,relative viability,NCI-H1793; first compound 1.265 µM,0.575
same,relative viability,NCI-H1793; first compound 4 µM,0.53
same,relative viability,NCI-H647; first compound 0.04 µM,0.522
same,relative viability,NCI-H647; first compound 0.1265 µM,0.813
same,relative viability,NCI-H647; first compound 1.265 µM,0.774
same,relative viability,NCI-H647; first compound 4 µM,0.86
same,relative viability,NCI-H2228; first compound 0.04 µM,0.731
same,relative viability,NCI-H2228; first compound 0.1265 µM,0.421
same,relative viability,NCI-H2228; first compound 0.4 µM,0.3
same,relative viability,NCI-H2228; first compound 1.265 µM,0.348
same,relative viability,NCI-H2228; first compound 4 µM,0.379
same,relative viability,NCI-H727; first compound 0.04 µM,1.29
same,relative viability,NCI-H727; first compound 0.1265 µM,1.18
same,relative viability,NCI-H727; first compound 0.4 µM,1.19
same,relative viability,NCI-H727; first compound 4 µM,1.1
same,relative viability,HOP-62; first compound 0.04 µM,0.579
same,relative viability,HOP-62; first compound 0.1265 µM,0.799
same,relative viability,HOP-62; first compound 0.4 µM,0.611
same,relative viability,HOP-62; first compound 1.265 µM,0.728
same,relative viability,HOP-62; first compound 4 µM,0.668
same,relative viability,NCI-H1650; first compound 0.04 µM,0.577
same,relative viability,NCI-H1650; first compound 0.1265 µM,0.654
same,relative viability,NCI-H1650; first compound 0.4 µM,0.541
same,relative viability,NCI-H1650; first compound 1.265 µM,0.526
same,relative viability,NCI-H1650; first compound 4 µM,0.46
same,relative viability,LXF-289; first compound 0.04 µM,0.93
same,relative viability,LXF-289; first compound 0.1265 µM,0.754
same,relative viability,LXF-289; first compound 0.4 µM,0.826
same,relative viability,LXF-289; first compound 1.265 µM,0.847
same,relative viability,LXF-289; first compound 4 µM,0.822
same,relative viability,RERF-LC-KJ; first compound 0.04 µM,0.73
same,relative viability,RERF-LC-KJ; first compound 0.1265 µM,0.703
same,relative viability,RERF-LC-KJ; first compound 0.4 µM,0.624
same,relative viability,RERF-LC-KJ; first compound 1.265 µM,0.691
same,relative viability,RERF-LC-KJ; first compound 4 µM,0.405
same,relative viability,HCC-44; first compound 0.04 µM,1.07
same,relative viability,HCC-44; first compound 0.1265 µM,1.14
same,relative viability,HCC-44; first compound 0.4 µM,1.05
same,relative viability,HCC-44; first compound 1.265 µM,1.08
same,relative viability,HCC-44; first compound 4 µM,1.14
